Source: patent US20130236480A1, “TRANSGLUTAMINASE 2 INHIBITORS FOR USE IN THE PREVENTION OR TREATMENT OF RAPIDLY PROGRESSIVE GLOMERULONEPHRITIS” (priority 2010, published 2013)

Tested on: primary culture of mouse podocytes
Assay: Wound assay of podocyte migration
Type: cell-based
Conditions: 100 μM MDC in DMSO, differentiated podocytes, p<0.05 vs. vehicle alone (n=3)
Method: FIG. 4: Distance of migration of differentiated podocytes within 20 h in the wound assay. A wound assay was used to assess podocyte migration. Differentiated cells were seeded in a 35 mm μ-Dish (Ibidi) forming two confluent monolayers separated by a silicon insert of 500 μm width. After 1 day, the silicon insert was removed and 100 μM of MDC (monodansylcadaverin, Sigma-Aldrich #D4008) diluted in DMSO, a TG2 inhibitor, was added or not. Cells were fixed 20 h later and the distance between the two monolayers was measured. *p<0.05 vs. vehicle alone (n=3 per condition).
In vivo podocytes are terminally differentiated and stationary cells. During crescent formation in anti-GBM GN in mice, however, podocytes assume a migratory phenotype, attach with their apical membrane onto the parietal basement membrane and start to proliferate.

In the case of `CN(C)c1cccc2c(S(=O)(=O)NCCCCCN)cccc12` [monodansylcadaverine], the “Migration of podocytes (distance of migration within 20 h in the wound assay)” value is reported as “significantly blunted”.
